Target: T1, P2X7 receptor (Homo sapiens, UniProt Q99572)
T1 construct: host or cells: SH-SY5Y
T1 sequence (Q99572 1-595): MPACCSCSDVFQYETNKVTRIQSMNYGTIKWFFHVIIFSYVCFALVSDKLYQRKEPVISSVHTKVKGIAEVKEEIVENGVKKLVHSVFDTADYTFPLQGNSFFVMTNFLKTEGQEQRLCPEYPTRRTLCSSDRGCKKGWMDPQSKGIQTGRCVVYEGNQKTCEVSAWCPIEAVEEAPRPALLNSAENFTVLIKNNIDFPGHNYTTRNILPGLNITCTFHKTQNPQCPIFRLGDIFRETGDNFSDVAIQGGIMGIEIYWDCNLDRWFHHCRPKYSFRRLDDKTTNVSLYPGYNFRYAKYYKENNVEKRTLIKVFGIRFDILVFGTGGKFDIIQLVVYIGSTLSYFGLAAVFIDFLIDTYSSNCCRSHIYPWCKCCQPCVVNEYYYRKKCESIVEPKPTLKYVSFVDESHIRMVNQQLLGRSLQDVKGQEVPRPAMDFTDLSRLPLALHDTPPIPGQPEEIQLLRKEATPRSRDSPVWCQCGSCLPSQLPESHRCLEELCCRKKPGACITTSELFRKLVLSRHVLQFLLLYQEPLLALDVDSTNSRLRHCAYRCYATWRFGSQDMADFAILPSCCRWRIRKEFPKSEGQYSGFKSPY
Assay: P2X7 calcium mobilization assay, high throughput, antagonist activity (Example 4A)
Assay type: cell-based
Conditions: 50% decrease in the fluorescence response of cells exposed to 80 μM of 2′(3′)-O-(4-benzoyl-benzoyl)adenosine 5′-triphosphate; Example 4A; read-out: IC50
How it was run: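 FLIPR^TETRA calcium read-out: maximum RFU per well minus average no-agonist control, with agonist wells giving the average positive maximum. Cells seeded at 100,000/well one day ahead, dye-loaded 1 h, rinsed, then exposed to compound for 1 h at room temperature.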

IC50, < 2000 nM:
O=C(NCC12CC3CC(CC(C3)C1)C2)c1cccc2nc(C(=O)N3CCCC(C(=O)NCCCO)C3)cn12 (stereo not shown) [Compound 694, N-(adamantan-1-ylmethyl)-2-({3-[(3-hydroxypropyl)carbamoyl]piperidin-1-yl}carbonyl) imidazo[1,2-a]pyridine-5-carboxamide]
CC(C)N(CCCO)C(=O)c1cn2c(C(=O)NCC34CC5CC(CC(C5)C3)C4)cccc2n1 [Compound 695, 5-N-(adamantan-1-ylmethyl)-2-N-(3-hydroxypropyl)-2-N-isopropylimidazol[1,2-a]pyridine-2,5-dicarboxamide]
CC(C)(C)NCCOC(=O)c1cn2c(C(=O)NCC34CC5CC(CC(C5)C3)C4)cccc2n1 [Compound 696, 2-(tert-butylamino)ethyl 5-[(adamantan-1-ylmethyl)carbamoyl] imidazo[1,2-a] pyridine-2-carboxylate]
CC(C)N(CCO)C(=O)c1cn2c(C(=O)NCC34CC5CC(CC(C5)C3)C4)cccc2n1 [Compound 697, 5-N-(adamantan-1-ylmethyl)-2-N-(2-hydroxyethyl)-2-N-isopropylimidazo[1,2-a]pyridine-2,5-dicarboxamide]
CC1CCCCN1C1CCN(C(=O)c2cn3c(C(=O)NCC45CC6CC(CC(C6)C4)C5)cccc3n2)CC1 (stereo not shown) [Compound 699, N-(adamantan-1-ylmethyl)-2-[(2-methyl-1,4′-bipiperidin-1′-yl)carbonyl]imidazo[1,2-a]pyridine-5-carboxamide]
O=C(NCC12CC3CC(CC(C3)C1)C2)c1cccc2nc(C(=O)N3CCN([C@@H]4CCC[C@H]4O)CC3)cn12 [Compound 700, N-(adamantan-1-ylmethyl)-2-({4-[(1R,2R)-2-hydroxycyclopentyl]piperazin-1-yl}carbonyl)imidazo[1,2-a]pyridine-5-carboxamide]
O=C(NCC12CC3CC(CC(C3)C1)C2)c1cccc2nc(C(=O)N3CCN([C@@H]4CCCC[C@H]4O)CC3)cn12 [Compound 701, N-(adamantan-1-ylmethyl)-2-({4-[(1R,2R)-2-hydroxycyclohexyl]piperazin-1-yl}carbonyl)imidazo[1,2-a]pyridine-5-carboxamide]
CC(C)(O)C1CCCCN1C(=O)c1cn2c(C(=O)NCC34CC5CC(CC(C5)C3)C4)cccc2n1 (stereo not shown) [Compound 702, N-(adamantan-1-ylmethyl)-2-{[2-(1-hydroxy-1-methylethyl)piperidin-1-yl]carbonyl}imidazo[1,2-a]pyridine-5-carboxamide]
CN(C)CCNC(=O)C1CCCN(C(=O)c2cn3c(C(=O)NCC45CC6CC(CC(C6)C4)C5)cccc3n2)C1 (stereo not shown) [Compound 704, N-(adamantan-1-ylmethyl)-2-[(3-{[2-(dimethylamino)ethyl]carbamoyl}piperidin-1-yl)carbonyl]imidazo[1,2-a]pyridine-5-carboxamide]
N#CCC1CCN(C(=O)c2cn3c(C(=O)NCC45CC6CC(CC(C6)C4)C5)cccc3n2)CC1 [Compound 705, N-(adamantan-1-ylmethyl)-2-{[4-(cyanomethyl)piperidin-1-yl]carbonyl} imidazo[1,2-a]pyridine-5-carboxamide]
CN1CCN(C)C(CN(C)C(=O)c2cn3c(C(=O)NCC45CC6CC(CC(C6)C4)C5)cccc3n2)C1 (stereo not shown) [Compound 706, 5-N-(adamantan-1-ylmethyl)-2-N-[(l,4-dimethylpiperazin-2-yl)methyl]-2-N-methylimidazo[1,2-a]pyridine-2,5-dicarboxamide]
CN(CC1CCCCN1C)C(=O)c1cn2c(C(=O)NCC34CC5CC(CC(C5)C3)C4)cccc2n1 (stereo not shown) [Compound 707, 5-N-(adamantan-1-ylmethyl)-2-N-methyl-2-N-[(1-methylpiperidin-2-yl)methyl]imidazo[1,2-a]pyridine-2,5-dicarboxamide]
COCc1ccc(CN(C)C(=O)c2cn3c(C(=O)NCC45CC6CC(CC(C6)C4)C5)cccc3n2)nc1 [Compound 710, 5-N-(adamantan-1-ylmethyl)-2-N-{[5-(methoxymethyl)pyridin-2-yl]methyl}-2-N-methylimidazo[1,2-a]pyridine-2,5-dicarboxamide]
CN(Cc1ccc(C(F)(F)F)cn1)C(=O)c1cn2c(C(=O)NCC34CC5CC(CC(C5)C3)C4)cccc2n1 [Compound 711, 5-N-(adamantan-1-ylmethyl)-2-N-methyl-2-N-{[5-(trifluoromethyl)pyridin-2-yl]methyl}imidazo[1,2-a]pyridine-2,5-dicarboxamide]
CCc1ccc(CN(C)C(=O)c2cn3c(C(=O)NCC45CC6CC(CC(C6)C4)C5)cccc3n2)cn1 [Compound 712, 5-N-(adamantan-1-ylmethyl)-2-N-[(6-ethylpyridin-3-yl)methyl]-2-N-methylimidazo[1,2-a]pyridine-2,5-dicarboxamide]
CCc1ccc(CN(C)C(=O)c2cn3c(C(=O)NCC45CC6CC(CC(C6)C4)C5)cccc3n2)nc1 [Compound 713, 5-N-(adamantan-1-ylmethyl)-2-N-[(5-ethylpyridin-2-yl)methyl]-2-N-methylimidazo[1,2-a]pyridine-2,5-dicarboxamide]
O=C(NCC12CC3CC(CC(C3)C1)C2)c1cccc2nc(C(=O)N3CCCN(C4CCC4)CC3)cn12 [Compound 714, N-(adamantan-1-ylmethyl)-2-[(4-cyclobutyl-1,4-diazepan-1-yl)carbonyl]imidazo[1,2-a]pyridine-5-carboxamide]
CCN(Cc1ccc(C2=NCCN2)cc1)C(=O)c1cn2c(C(=O)NCC34CC5CC(CC(C5)C3)C4)cccc2n1 [Compound 715, 5-N-(adamantan-1-ylmethyl)-2-N-[4-(4,5-dihydro-1H-imidazol-2-yl)benzyl]-2-N-ethylimidazo[1,2-a]pyridine-2,5-dicarboxamioe]
CC(C)c1ccc(CN(C)C(=O)c2cn3c(C(=O)NCC45CC6CC(CC(C6)C4)C5)cccc3n2)nc1 [Compound 716, 5-N-(adamantan-1-ylmethyl)-2-N-[(5-isopropylpyridin-2-yl)methyl]-2-N-methylimidazo[1,2-a]pyridine-2,5-dicarboxamide]
CC(C)c1ccc(CN(C)C(=O)c2cn3c(C(=O)NCC45CC6CC(CC(C6)C4)C5)cccc3n2)cn1 [Compound 717, 5-N-(adamantan-1-ylmethyl)-2-N-[(6-isopropylpyridin-3-yl)methyl]-2-N-methylimidazo[1,2-a]pyridine-2,5-dicarboxamide]
Cn1cc2c(n1)CCN(C(=O)c1cn3c(C(=O)NCC45CC6CC(CC(C6)C4)C5)cccc3n1)C2 [Compound 718, N-(adamantan-1-ylmethyl)-2-[(2-methyl-2,4,6,7-tetrahydro-5H-pyrazolo[4,3-c]pyridin-5-yl)carbonyl]imidazo[1,2-a]pyridine-5-carboxamide]
O=C(NCC12CC3CC(CC(C3)C1)C2)c1cccc2nc(C(=O)N3CCC(N4CCCC4)C3)cn12 (stereo not shown) [Compound 719, N-(adamantan-1-ylmethyl)-2-(1,3′-bipyrrolidin-1′-ylcarbonyl)imidazo [1,2-a]pyridine-5-carboxamide]

Reference: patent US8431593B2, “Heteroaryl amide derivatives” (H. Lundbeck A/S, priority 2006, dated 2013)
